Test results published in ChEMBL document CHEMBL3758081, “Synthesis and biological evaluation of new naphthalene substituted thiosemicarbazone derivatives as potent antifungal and anticancer agents” (Eur J Med Chem, 2016).
Converted amounts (≈) assume the structure as drawn.

Tests used:
[1] = Genotoxicity in Salmonella typhimurium TA1535/pSK1002 assessed as induction ratio at 0.156 mg/ml after 2 hrs by umuC assay in presence of Sprague-Dawley rat liver S9 fraction; type: toxicity, organism-based; settings: salmonella enterica subsp. enterica serovar typhimurium
Salmonella typhimurium [2] = test: Mutagenicity in Salmonella typhimurium TA98 at 5 mg/ml after 48 hrs by Ames MPF assay in absence of Sprague-Dawley rat liver S9 fraction; type: toxicity, organism-based; settings: salmonella enterica subsp. enterica serovar typhimurium
Salmonella typhimurium [3] = test: Genotoxicity in Salmonella typhimurium TA1535/pSK1002 assessed as growth factor at 0.625 mg/ml after 2 hrs by umuC assay in absence of Sprague-Dawley rat liver S9 fraction; type: toxicity, organism-based; settings: salmonella enterica subsp. enterica serovar typhimurium
Salmonella typhimurium [4] = test: Mutagenicity in Salmonella typhimurium TA100 at 0.3125 mg/ml after 48 hrs by Ames MPF assay in presence of Sprague-Dawley rat liver S9 fraction; type: toxicity, organism-based; settings: salmonella enterica subsp. enterica serovar typhimurium, s9, 48 h
Salmonella typhimurium [5] = test: Genotoxicity in Salmonella typhimurium TA1535/pSK1002 assessed as growth factor at 1.25 mg/ml after 2 hrs by umuC assay in absence of Sprague-Dawley rat liver S9 fraction; type: toxicity, organism-based; settings: salmonella enterica subsp. enterica serovar typhimurium
Candida albicans = test: Antifungal activity against Candida albicans ATCC-90028 after 48 hrs by broth microdilution method; type: functional; settings: ATCC-90028, 48 h
Aspergillus niger = test: Antifungal activity against Aspergillus niger ATCC-1094 after 72 hrs by broth microdilution method; type: functional; settings: ATCC-1094, 72 h
[6] = Genotoxicity in Salmonella typhimurium TA1535/pSK1002 assessed as induction ratio at 0.156 mg/ml after 2 hrs by umuC assay in absence of Sprague-Dawley rat liver S9 fraction; type: toxicity, organism-based; settings: salmonella enterica subsp. enterica serovar typhimurium
[7] = Genotoxicity in Salmonella typhimurium TA1535/pSK1002 assessed as induction ratio at 5 mg/ml after 2 hrs by umuC assay in absence of Sprague-Dawley rat liver S9 fraction; type: toxicity, organism-based; settings: salmonella enterica subsp. enterica serovar typhimurium
Nakaseomyces glabratus = test: Antifungal activity against clinical isolate Candida glabrata after 48 hrs by broth microdilution method; type: functional
[8] = Genotoxicity in Salmonella typhimurium TA1535/pSK1002 assessed as induction ratio at 5 mg/ml after 2 hrs by umuC assay in presence of Sprague-Dawley rat liver S9 fraction; type: toxicity, organism-based; settings: salmonella enterica subsp. enterica serovar typhimurium
Salmonella typhimurium [9] = test: Mutagenicity in Salmonella typhimurium TA98 at 1.25 mg/ml after 48 hrs by Ames MPF assay in absence of Sprague-Dawley rat liver S9 fraction; type: toxicity, organism-based; settings: salmonella enterica subsp. enterica serovar typhimurium
Salmonella typhimurium [10] = test: Mutagenicity in Salmonella typhimurium TA100 at 0.156 mg/ml after 48 hrs by Ames MPF assay in presence of Sprague-Dawley rat liver S9 fraction; type: toxicity, organism-based; settings: salmonella enterica subsp. enterica serovar typhimurium, s9, 48 h
Salmonella typhimurium [11] = test: Genotoxicity in Salmonella typhimurium TA1535/pSK1002 assessed as growth factor at 0.156 mg/ml after 2 hrs by umuC assay in presence of Sprague-Dawley rat liver S9 fraction; type: toxicity, organism-based; settings: salmonella enterica subsp. enterica serovar typhimurium, s9, 2 h
Salmonella typhimurium [12] = test: Genotoxicity in Salmonella typhimurium TA1535/pSK1002 assessed as growth factor at 5 mg/ml after 2 hrs by umuC assay in absence of Sprague-Dawley rat liver S9 fraction; type: toxicity, organism-based; settings: salmonella enterica subsp. enterica serovar typhimurium
[13] = Genotoxicity in Salmonella typhimurium TA1535/pSK1002 assessed as induction ratio at 0.625 mg/ml after 2 hrs by umuC assay in presence of Sprague-Dawley rat liver S9 fraction; type: toxicity, organism-based; settings: salmonella enterica subsp. enterica serovar typhimurium
Aspergillus flavus = test: Antifungal activity against Aspergillus flavus NRRL-980 after 72 hrs by broth microdilution method; type: functional; settings: NRRL-980, 72 h
Salmonella typhimurium [14] = test: Mutagenicity in Salmonella typhimurium TA98 at 2.5 mg/ml after 48 hrs by Ames MPF assay in absence of Sprague-Dawley rat liver S9 fraction; type: toxicity, organism-based; settings: salmonella enterica subsp. enterica serovar typhimurium
Salmonella typhimurium [15] = test: Mutagenicity in Salmonella typhimurium TA100 at 2.5 mg/ml after 48 hrs by Ames MPF assay in presence of Sprague-Dawley rat liver S9 fraction; type: toxicity, organism-based; settings: salmonella enterica subsp. enterica serovar typhimurium, s9, 48 h
[16] = Genotoxicity in Salmonella typhimurium TA1535/pSK1002 assessed as induction ratio at 0.3125 mg/ml after 2 hrs by umuC assay in absence of Sprague-Dawley rat liver S9 fraction; type: toxicity, organism-based; settings: salmonella enterica subsp. enterica serovar typhimurium
Salmonella typhimurium [17] = test: Genotoxicity in Salmonella typhimurium TA1535/pSK1002 assessed as growth factor at 1.25 mg/ml after 2 hrs by umuC assay in presence of Sprague-Dawley rat liver S9 fraction; type: toxicity, organism-based; settings: salmonella enterica subsp. enterica serovar typhimurium, s9, 2 h
Salmonella typhimurium [18] = test: Mutagenicity in Salmonella typhimurium TA100 at 1.25 mg/ml after 48 hrs by Ames MPF assay in presence of Sprague-Dawley rat liver S9 fraction; type: toxicity, organism-based; settings: salmonella enterica subsp. enterica serovar typhimurium, s9, 48 h
Salmonella typhimurium [19] = test: Genotoxicity in Salmonella typhimurium TA1535/pSK1002 assessed as growth factor at 0.3125 mg/ml after 2 hrs by umuC assay in presence of Sprague-Dawley rat liver S9 fraction; type: toxicity, organism-based; settings: salmonella enterica subsp. enterica serovar typhimurium, s9, 2 h
[20] = Genotoxicity in Salmonella typhimurium TA1535/pSK1002 assessed as induction ratio at 0.3125 mg/ml after 2 hrs by umuC assay in presence of Sprague-Dawley rat liver S9 fraction; type: toxicity, organism-based; settings: salmonella enterica subsp. enterica serovar typhimurium
Salmonella typhimurium [21] = test: Mutagenicity in Salmonella typhimurium TA98 at 0.625 mg/ml after 48 hrs by Ames MPF assay in absence of Sprague-Dawley rat liver S9 fraction; type: toxicity, organism-based; settings: salmonella enterica subsp. enterica serovar typhimurium
Salmonella typhimurium [22] = test: Mutagenicity in Salmonella typhimurium TA98 at 0.3125 mg/ml after 48 hrs by Ames MPF assay in presence of Sprague-Dawley rat liver S9 fraction; type: toxicity, organism-based; settings: salmonella enterica subsp. enterica serovar typhimurium, s9, 48 h
[23] = Cytotoxicity against mouse NIH/3T3 cells after 24 hrs by XTT assay; type: cell-based; settings: NIH3T3, 24 h
Salmonella typhimurium [24] = test: Mutagenicity in Salmonella typhimurium TA98 at 0.3125 mg/ml after 48 hrs by Ames MPF assay in absence of Sprague-Dawley rat liver S9 fraction; type: toxicity, organism-based; settings: salmonella enterica subsp. enterica serovar typhimurium
Salmonella typhimurium [25] = test: Genotoxicity in Salmonella typhimurium TA1535/pSK1002 assessed as growth factor at 2.5 mg/ml after 2 hrs by umuC assay in absence of Sprague-Dawley rat liver S9 fraction; type: toxicity, organism-based; settings: salmonella enterica subsp. enterica serovar typhimurium
[26] = Genotoxicity in Salmonella typhimurium TA1535/pSK1002 assessed as induction ratio at 2.5 mg/ml after 2 hrs by umuC assay in absence of Sprague-Dawley rat liver S9 fraction; type: toxicity, organism-based; settings: salmonella enterica subsp. enterica serovar typhimurium
Salmonella typhimurium [27] = test: Mutagenicity in Salmonella typhimurium TA98 at 2.5 mg/ml after 48 hrs by Ames MPF assay in presence of Sprague-Dawley rat liver S9 fraction; type: toxicity, organism-based; settings: salmonella enterica subsp. enterica serovar typhimurium, s9, 48 h
Salmonella typhimurium [28] = test: Mutagenicity in Salmonella typhimurium TA100 at 5 mg/ml after 48 hrs by Ames MPF assay in presence of Sprague-Dawley rat liver S9 fraction; type: toxicity, organism-based; settings: salmonella enterica subsp. enterica serovar typhimurium, s9, 48 h
Salmonella typhimurium [29] = test: Mutagenicity in Salmonella typhimurium TA100 at 0.625 mg/ml after 48 hrs by Ames MPF assay in presence of Sprague-Dawley rat liver S9 fraction; type: toxicity, organism-based; settings: salmonella enterica subsp. enterica serovar typhimurium, s9, 48 h
[30] = Genotoxicity in Salmonella typhimurium TA1535/pSK1002 assessed as induction ratio at 2.5 mg/ml after 2 hrs by umuC assay in presence of Sprague-Dawley rat liver S9 fraction; type: toxicity, organism-based; settings: salmonella enterica subsp. enterica serovar typhimurium
Salmonella typhimurium [31] = test: Genotoxicity in Salmonella typhimurium TA1535/pSK1002 assessed as growth factor at 0.625 mg/ml after 2 hrs by umuC assay in presence of Sprague-Dawley rat liver S9 fraction; type: toxicity, organism-based; settings: salmonella enterica subsp. enterica serovar typhimurium, s9, 2 h
Salmonella typhimurium [32] = test: Mutagenicity in Salmonella typhimurium TA98 at 1.25 mg/ml after 48 hrs by Ames MPF assay in presence of Sprague-Dawley rat liver S9 fraction; type: toxicity, organism-based; settings: salmonella enterica subsp. enterica serovar typhimurium, s9, 48 h

| SMILES | fold induction at 2 h, 0.156 mg/ml [1] | fold change (FC) (Salmonella typhimurium [2]) | Activity (Salmonella typhimurium [3]) | fold change (FC) (Salmonella typhimurium [4]) | Activity (Salmonella typhimurium [5]) | MIC (Candida albicans) | MIC (Aspergillus niger) | fold induction at 2 h, 0.156 mg/ml [6] | fold induction at 2 h, 5 mg/ml [7] | MIC (Nakaseomyces glabratus) | fold induction at 2 h, 5 mg/ml [8] | fold change (FC) (Salmonella typhimurium [9]) | fold change (FC) (Salmonella typhimurium [10]) | Activity (Salmonella typhimurium [11]) | Activity (Salmonella typhimurium [12]) | fold induction at 2 h, 0.625 mg/ml [13] | MIC (Aspergillus flavus) | fold change (FC) (Salmonella typhimurium [14]) | fold change (FC) (Salmonella typhimurium [15]) | fold induction at 2 h, 0.3125 mg/ml [16] | other results |
| --- | --- | --- | --- | --- | --- | --- | --- | --- | --- | --- | --- | --- | --- | --- | --- | --- | --- | --- | --- | --- | --- |
| Fc1cccc(/C=N/NC(=S)Nc2cccc3ccccc23)c1F | 5.34 | 0.34 | 0.137 | 1.07 | 0.131 | 250 µg/mL (≈ 732 µM) | 250 µg/mL (≈ 732 µM) | 6 | 1.55 | 125 µg/mL (≈ 366 µM) | 1.46 | 0.34 | 1.02 | 0.274 | 0.146 | 1.39 | 250 µg/mL (≈ 732 µM) | 0 | 0.58 | 1.79 | Activity (Salmonella typhimurium [17]): 0.228; fold change (FC) (Salmonella typhimurium [18]): 0.68; Activity (Salmonella typhimurium [19]): 0.121; fold induction at 2 h, 0.3125 mg/ml [20]: 2.81; fold change (FC) (Salmonella typhimurium [21]): 0; fold change (FC) (Salmonella typhimurium [22]): 0.84; IC50 [23]: > 500 µg/mL; fold change (FC) (Salmonella typhimurium [24]): 0; Activity (Salmonella typhimurium [25]): 0.311; fold induction at 2 h, 2.5 mg/ml [26]: 5.25; fold change (FC) (Salmonella typhimurium [27]): 0.47; fold change (FC) (Salmonella typhimurium [28]): 1.02; fold change (FC) (Salmonella typhimurium [29]): 0.92; fold induction at 2 h, 2.5 mg/ml [30]: 3.99; Activity (Salmonella typhimurium [31]): 0.236; fold change (FC) (Salmonella typhimurium [32]): 0.84 |
| Fc1ccc(F)c(/C=N/NC(=S)Nc2cccc3ccccc23)c1 | 1.5 | 0.17 | 0.14 | 0.34 | 0.115 | 250 µg/mL (≈ 732 µM) | 250 µg/mL (≈ 732 µM) | 1.79 | 1.63 | 125 µg/mL (≈ 366 µM) | 1.42 | 0.34 | 0.48 | 0.235 | 0.131 | 5.34 | 250 µg/mL (≈ 732 µM) | 0 | 0.48 | 1.3 | Activity (Salmonella typhimurium [17]): 0.121; fold change (FC) (Salmonella typhimurium [18]): 0.44; Activity (Salmonella typhimurium [19]): 0.23; fold induction at 2 h, 0.3125 mg/ml [20]: 1.4; fold change (FC) (Salmonella typhimurium [21]): 0; fold change (FC) (Salmonella typhimurium [22]): 1.12; IC50 [23]: > 500 µg/mL; fold change (FC) (Salmonella typhimurium [24]): 0; Activity (Salmonella typhimurium [25]): 0.137; fold induction at 2 h, 2.5 mg/ml [26]: 1.75; fold change (FC) (Salmonella typhimurium [27]): 0.56; fold change (FC) (Salmonella typhimurium [28]): 0.78; fold change (FC) (Salmonella typhimurium [29]): 0.44; fold induction at 2 h, 2.5 mg/ml [30]: 1.39; Activity (Salmonella typhimurium [31]): 0.274; fold change (FC) (Salmonella typhimurium [32]): 0.65 |
